# Data as given in US20160250177A1, “MODIFIED DOCETAXEL LIPOSOME FORMULATIONS AND USES THEREOF” (MALLINCKRODT LLC, priority 2015, published 2016).
# Where two headings read alike, the source gives them in different places.
# Tests used:
# [1] = system: human PC3 (prostate) tumor xenograft; experiment: Antitumor activity, single IV dose, PC3 xenograft; settings: for Partial Tumor Regression (%) / TGD / TGD (%) / TGI (%) / median survival: single IV
# Description: Tumor cell lines were implanted subcutaneously into the flank of nude (immunodeficient) mice and allowed to grow to a fixed size. […] In each case, where possible, doses were selected as providing equivalent levels of toxicity/tolerance. […] Tumor volume was analyzed to determine tumor growth delay (TGD) and partial regression. Mice were removed from the study if they lost 20% of their initial bodyweight or became moribund or if their tumor volume exceeded 2500 mm^3 or the tumor ulcerated. If less than half of the initial cohort of mice remained, that group was no longer graphed or included in further tumor analysis. However, any remaining animals were followed until completion of the in-life observation period and included in a survival analysis.
# [2] = system: PC3 human prostate xenograft; settings: for median survival: docetaxel
# Description: In another study, athymic male nude mice bearing PC3 human prostate xenograft were given two or four intravenous (IV) doses of PEGylated TD-1 liposome, Taxotere® or saline. Dosing intervals were twenty-one days for two cycles or every four days for four cycles.
# Tumor volume was measured 2-3 times per week using the Biopticon tumor imaging system and tumor volume data was analyzed to determine TGD and partial tumor regression. Survival analysis was conducted and median survival time determined.
# [3] = cited from earlier work
# [4] = clinical; settings: human, in vivo, iv
# [5] = human, in vivo; for AUC(0-inf) / AUC/Dose / CL / Cmax/Dose / Vss: iv
# [6] = Tissue distribution in mice with A549 xenograft; settings: for Kidney AUC of docetaxel / Liver AUC of docetaxel / Lung AUC of docetaxel / Muscle AUC of docetaxel / Spleen AUC of docetaxel / Tumor AUC of docetaxel: single IV
# Description: The plasma pharmacokinetics and distribution were studied in female athymic nude mice each implanted subcutaneously with A549 cells (human non-small cell lung cancer). Once tumors reached a volume of 100-300 mm^3, animals were randomized into 4 groups.
# Three animals were sacrificed at 1, 4, 24, 72 (3 days), 168 (7 days), 216 (9 days), 336 (14 days), 432 (18 days) and 504 hours (21 days) post injection.
# [7] = high dose Taxotere® 100 mg/m^2, van Oosterom 1995
smiles,measurement,setting,value
"CC(=O)O[C@@]12CO[C@@H]1C[C@H](O)[C@@]1(C)C(=O)[C@H](O)C3=C(C)[C@@H](OC(=O)[C@H](O)[C@@H](NC(=O)OC(C)(C)C)c4ccccc4)C[C@@](O)([C@@H](OC(=O)c4ccccc4)[C@H]21)C3(C)C [Docetaxel, docetaxel]",Partial Tumor Regression (%),[1]; docetaxel 9 mg/kg,0%
same,TGD,[1]; docetaxel 9 mg/kg,11
same,TGD (%),[1]; docetaxel 9 mg/kg,42%
same,TGI (%),[1]; docetaxel 9 mg/kg,38%
same,median survival,[1]; docetaxel 9 mg/kg,47 days
same,Partial Tumor Regression (%),[1]; docetaxel 18 mg/kg,33%
same,TGD,[1]; docetaxel 18 mg/kg,41
same,TGD (%),[1]; docetaxel 18 mg/kg,154%
same,TGI (%),[1]; docetaxel 18 mg/kg,91%
same,median survival,[1]; docetaxel 18 mg/kg,81 days
same,Partial Tumor Regression (%),[1]; docetaxel 27 mg/kg,60%
same,TGD,[1]; docetaxel 27 mg/kg,42
same,TGD (%),[1]; docetaxel 27 mg/kg,157%
same,TGI (%),[1]; docetaxel 27 mg/kg,98%
same,median survival,[1]; docetaxel 27 mg/kg,84 days
same,tumor growth,[1]; docetaxel 18 and 27 mg/kg,inhibited tumor growth
same,survival compared to saline,"[1]; docetaxel 18 and 27 mg/kg, all doses of TD-1 liposomes and PEGylated TD-1 liposomes, p<0.05, Mantel-Cox log-rank",increased survival significantly more than saline
same,growth of PC3 human prostate xenograft (mean tumor volume over time),"[2]; IV administration, FIG. 8A",dose dependently inhibited growth
same,Partial Tumor Regression (%),[2]; docetaxel 5 mg/kg (q4dx4),0%
same,TGD,[2]; docetaxel 5 mg/kg (q4dx4),34 days
same,TGD (%),[2]; docetaxel 5 mg/kg (q4dx4),213%
same,Partial Tumor Regression (%),[2]; docetaxel 10 mg/kg (q4dx4),80%
same,TGD,[2]; docetaxel 10 mg/kg (q4dx4),69 days
same,TGD (%),[2]; docetaxel 10 mg/kg (q4dx4),431%
same,Partial Tumor Regression (%),[2]; docetaxel 30 mg/kg (q21dx2),100%
same,TGD,[2]; docetaxel 30 mg/kg (q21dx2),73 days
same,TGD (%),[2]; docetaxel 30 mg/kg (q21dx2),456%
same,Partial Tumor Regression (%),[2]; docetaxel 60 mg/kg (q21dx2),100%
same,TGD,[2]; docetaxel 60 mg/kg (q21dx2),86 days
same,TGD (%),[2]; docetaxel 60 mg/kg (q21dx2),538%
same,median survival,[2]; 1st dose group listed (5 mg/kg q4dx4 by order of Table 8),62 days
same,median survival,[2]; 2nd dose group listed (10 mg/kg q4dx4 by order of Table 8),88 days
same,median survival,[2]; 3rd dose group listed (30 mg/kg q21dx2 by order of Table 8),93 days
same,median survival,[2]; 4th dose group listed (60 mg/kg q21dx2 by order of Table 8),107 days
same,reported t1/2,"[3]; Taxotere® (docetaxel), Clarke & Rivory 1999, Prescribing Information",12 h
same,docetaxel Cmax,[3]; [7],2680 ng/mL
same,docetaxel half-life,[3]; [7],10 to 19 h
same,docetaxel Cmax associated with increased incidence of adverse effects,"[3]; plasma, therapeutic window, FIG. 2",above 0.64 μg/ml
same,Cmax,[4]; 3 mg/m2,15.5 ng/mL
same,half-life,"[4]; 3 mg/m2, t1/2",14 h
same,Cmax,[4]; 6 mg/m2,36.3 ng/mL
same,half-life,"[4]; 6 mg/m2, t1/2",9.32 h
same,Cmax,[4]; 12 mg/m2,74.7 ng/mL
same,half-life,"[4]; 12 mg/m2, t1/2",12.3 h
same,Cmax,[4]; 24 mg/m2,149 ng/mL
same,half-life,"[4]; 24 mg/m2, t1/2",55.3 h
same,Cmax,[4]; 48 mg/m2,187 ng/mL
same,half-life,"[4]; 48 mg/m2, t1/2",73.5 h
same,Cmax,[4]; 80 mg/m2,307 ng/mL
same,half-life,"[4]; 80 mg/m2, t1/2",28.8 h
same,Cmax,[4]; 120 mg/m2,702 ng/mL
same,half-life,"[4]; 120 mg/m2, t1/2",45.8 h
same,Cmax,[4]; 160 mg/m2,879 ng/mL
same,half-life,"[4]; 160 mg/m2, t1/2",51.1 h
same,AUC(0-inf),[4]; 190 mg/m2,18800 ng·h/mL
same,Cmax,[4]; 190 mg/m2,1130 ng/mL
same,half-life,"[4]; 190 mg/m2, t1/2",51.9 h
same,AUC(0-inf),[4]; 225 mg/m2,33900 ng·h/mL
same,Cmax,[4]; 225 mg/m2,1040 ng/mL
same,half-life,"[4]; 225 mg/m2, t1/2",61.8 h
same,AUC(0-inf),[4]; 270 mg/m2,26200 ng·h/mL
same,Cmax,[4]; 270 mg/m2,1190 ng/mL
same,half-life,"[4]; 270 mg/m2, t1/2",35.5 h
same,AUC(0-inf),[4]; 320 mg/m2,37600 ng·h/mL
same,Cmax,[4]; 320 mg/m2,1740 ng/mL
same,half-life,"[4]; 320 mg/m2, t1/2",40.8 h
same,AUC(0-inf),[4]; 380 mg/m2,107000 ng·h/mL
same,Cmax,[4]; 380 mg/m2,2900 ng/mL
same,half-life,"[4]; 380 mg/m2, t1/2",67.7 h
same,CL (mean),[5],14.13 L/h/m^2
same,Cmax and AUC with respect to dose,[5],remained linear with respect to dose
same,Vss (mean),[5],458.8 L/m^2
same,dose proportionality for Cmax and AUCinf,[5],demonstrate dose proportionality
same,AUC(0-inf),[5]; 3 mg/m2,225 ng·h/mL
same,AUC(0-inf),[5]; 6 mg/m2,265 ng·h/mL
same,AUC(0-inf),[5]; 12 mg/m2,721 ng·h/mL
same,AUC/Dose,[5]; 12 mg/m2,60.1 m^2 · ng · h/ml/mg
same,CL,[5]; 12 mg/m2,16.92 l/h/m^2
same,Cmax/Dose,[5]; 12 mg/m2,6.22 m^2 · ng/ml/mg
same,Vss,[5]; 12 mg/m2,257.1 l/m^2
same,AUC(0-inf),[5]; 24 mg/m2,4899 ng·h/mL
same,AUC(0-inf),[5]; 48 mg/m2,5297 ng·h/mL
same,AUC/Dose,[5]; 48 mg/m2,110.4 m^2 · ng · h/ml/mg
same,CL,[5]; 48 mg/m2,13.29 l/h/m^2
same,Cmax/Dose,[5]; 48 mg/m2,3.90 m^2 · ng/ml/mg
same,Vss,[5]; 48 mg/m2,705.3 l/m^2
same,AUC(0-inf),[5]; 80 mg/m2,4798 ng·h/mL
same,AUC(0-inf),[5]; 120 mg/m2,28103 ng·h/mL
same,AUC/Dose,[5]; 120 mg/m2,234.2 m^2 · ng · h/ml/mg
same,CL,[5]; 120 mg/m2,7.15 l/h/m^2
same,Cmax/Dose,[5]; 120 mg/m2,5.85 m^2 · ng/ml/mg
same,Vss,[5]; 120 mg/m2,292.5 l/m^2
same,AUC(0-inf),[5]; 160 mg/m2,16518 ng·h/mL
same,AUC/Dose,[5]; 225 mg/m2,150.8 m^2 · ng · h/ml/mg
same,CL,[5]; 225 mg/m2,6.75 l/h/m^2
same,Cmax/Dose,[5]; 225 mg/m2,4.64 m^2 · ng/ml/mg
same,Vss,[5]; 225 mg/m2,413.4 l/m^2
same,AUC/Dose,[5]; 320 mg/m2,117.6 m^2 · ng · h/ml/mg
same,CL,[5]; 320 mg/m2,9.14 l/h/m^2
same,Cmax/Dose,[5]; 320 mg/m2,5.43 m^2 · ng/ml/mg
same,Vss,[5]; 320 mg/m2,404.0 l/m^2
same,Kidney AUC of docetaxel,[6]; docetaxel 30 mg/kg,28 µg·h/g
same,Liver AUC of docetaxel,[6]; docetaxel 30 mg/kg,10 µg·h/g
same,Lung AUC of docetaxel,[6]; docetaxel 30 mg/kg,86 µg·h/g
same,Muscle AUC of docetaxel,[6]; docetaxel 30 mg/kg,23 µg·h/g
same,Spleen AUC of docetaxel,[6]; docetaxel 30 mg/kg,77 µg·h/g
same,Tumor AUC of docetaxel,[6]; docetaxel 30 mg/kg,276 µg·h/g
same,time tumor retained measurable levels of docetaxel,[6]; docetaxel 50 mg/kg,216 h
same,Kidney AUC of docetaxel,[6]; docetaxel 50 mg/kg,179 µg·h/g
same,Liver AUC of docetaxel,[6]; docetaxel 50 mg/kg,37 µg·h/g
same,Lung AUC of docetaxel,[6]; docetaxel 50 mg/kg,211 µg·h/g
same,Muscle AUC of docetaxel,[6]; docetaxel 50 mg/kg,64 µg·h/g
same,Spleen AUC of docetaxel,[6]; docetaxel 50 mg/kg,162 µg·h/g
same,Tumor AUC of docetaxel,[6]; docetaxel 50 mg/kg,442 µg·h/g
same,time after which docetaxel concentrations fell below the limits of quantitation in most tissues,"[6]; docetaxel 50 mg/kg, all tissues except tumor",24 h
same,time after which tumor levels of docetaxel fell below the levels of quantitation (1.0 μg/g),[6]; intravenous injection of docetaxel,nine
